Source: PubChem BioAssay AID1963870 (Molecular Pharmacology Branch, DTP, NCI, 2024)

Test system: 292921-168-R-J2-PDC KRAS tumor spheroid viability
Test: Anticancer human tumor 292921-168-R-J2-PDC patient-derived pancreatic carcinoma cell line growth inhibition [KRAS2]
Conditions: spheroids with HUVEC and MSC; for IC50: curve of first compound; for viability, T/C: stronger effect = lower value
How it was run: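 KRAS-mutant tumor cells were grown as spheroids with HUVEC endothelial cells and human MSCs as stroma. Targeted agents were tested alone and with KRAS pathway inhibitors. Doses started at or near clinical Cmax, or 10 microM, descending half-log.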

[1] = second compound 0.1 µM, first compound 0.0316 µM
[2] = second compound 0.1 µM, first compound 0.1 µM
[3] = second compound 0.1 µM, first compound 0.316 µM
[4] = second compound 0.1 µM, first compound 1 µM
[5] = second compound 0.1 µM, first compound 3.16 µM
[6] = second compound 0.1 µM, first compound 10 µM
[7] = second compound 0.316 µM, first compound 0.0316 µM
[8] = second compound 0.316 µM, first compound 0.1 µM
[9] = second compound 0.316 µM, first compound 0.316 µM
[10] = second compound 0.316 µM, first compound 1 µM
[11] = second compound 0.316 µM, first compound 3.16 µM
[12] = second compound 0.316 µM, first compound 10 µM
[13] = second compound 1 µM, first compound 0.0316 µM
[14] = second compound 1 µM, first compound 0.1 µM
[15] = second compound 1 µM, first compound 0.316 µM
[16] = second compound 1 µM, first compound 1 µM
[17] = second compound 1 µM, first compound 3.16 µM
[18] = second compound 1 µM, first compound 10 µM
[19] = second compound 3.16 µM, first compound 0.0316 µM
[20] = second compound 3.16 µM, first compound 0.1 µM
[21] = second compound 3.16 µM, first compound 0.316 µM
[22] = second compound 3.16 µM, first compound 1 µM
[23] = second compound 3.16 µM, first compound 3.16 µM
[24] = second compound 3.16 µM, first compound 10 µM
[25] = second compound 10 µM, first compound 0.0316 µM
[26] = second compound 10 µM, first compound 0.1 µM
[27] = second compound 10 µM, first compound 0.316 µM
[28] = second compound 10 µM, first compound 1 µM
[29] = second compound 10 µM, first compound 3.16 µM
[30] = second compound 10 µM, first compound 10 µM
[31] = second compound 0.1 µM, first compound 0.000316 µM
[32] = second compound 0.1 µM, first compound 0.001 µM
[33] = second compound 0.1 µM, first compound 0.00316 µM
[34] = second compound 0.1 µM, first compound 0.01 µM
[35] = second compound 0.316 µM, first compound 0.000316 µM
[36] = second compound 0.316 µM, first compound 0.001 µM
[37] = second compound 0.316 µM, first compound 0.00316 µM
[38] = second compound 0.316 µM, first compound 0.01 µM
[39] = second compound 1 µM, first compound 0.000316 µM
[40] = second compound 1 µM, first compound 0.001 µM
[41] = second compound 1 µM, first compound 0.00316 µM
[42] = second compound 1 µM, first compound 0.01 µM
[43] = second compound 3.16 µM, first compound 0.000316 µM
[44] = second compound 3.16 µM, first compound 0.001 µM
[45] = second compound 3.16 µM, first compound 0.00316 µM
[46] = second compound 3.16 µM, first compound 0.01 µM
[47] = second compound 10 µM, first compound 0.000316 µM
[48] = second compound 10 µM, first compound 0.001 µM
[49] = second compound 10 µM, first compound 0.00316 µM
[50] = second compound 10 µM, first compound 0.01 µM
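Note: drug exposure lasted seven days after spheroids formed for three days.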
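Throughout, for viability, T/C: percent of DMSO vehicle control viability which is 100%.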

For `CC(C)NCC(C(=O)N1CCN(c2ncnc3c2C(C)CC3O)CC1)c1ccc(Cl)cc1` (stereo not given) + COc1cc2nc(C)nc(NC(C)c3cc(N)cc(C(F)(F)F)c3)c2cc1OC1CCOC1, the IC50 (second compound 0.1 µM) was 8850 nM, the IC50 (second compound 0.316 µM) was 8100 nM and the IC50 (second compound 1 µM) was 5010 nM. It also gave an IC50 (second compound 3.16 µM) of 1250 nM, an IC50 (second compound 10 µM) of less than 31.6 nM and a viability, T/C [1] of 87.5%. The viability, T/C [2] was 84.8%, the viability, T/C [3] was 78.8% and the viability, T/C [4] was 77.8%. The viability, T/C [5] was 77.4%, the viability, T/C [6] was 46.3% and the viability, T/C [7] was 82.7%. The viability, T/C [8] was 82%, the viability, T/C [9] was 80.5% and the viability, T/C [10] was 75.3%. The viability, T/C [11] was 74.4%, the viability, T/C [12] was 44.7% and the viability, T/C [13] was 83.2%. For the same compound, the viability, T/C [14] was 71.1%, the viability, T/C [15] was 63.8% and the viability, T/C [16] was 63.2%. It also gave a viability, T/C [17] of 60.9%, a viability, T/C [18] of 40.2% and a viability, T/C [19] of 58.1%. It also gave a viability, T/C [20] of 51.1%, a viability, T/C [21] of 50.2% and a viability, T/C [22] of 50.4%. The viability, T/C [23] was 46.9%, the viability, T/C [24] was 30.6% and the viability, T/C [25] was 20.3%. It also gave a viability, T/C [26] of 19.7%, a viability, T/C [27] of 18.6% and a viability, T/C [28] of 18%. It also gave a viability, T/C [29] of 15.4% and a viability, T/C [30] of 9.75%.

For `CN(C)C/C=C/C(=O)Nc1cc2c(Nc3ccc(F)c(Cl)c3)ncnc2cc1O[C@H]1CCOC1` + C=CC(=O)N1CCN(c2nc(OCC3CCCN3C)nc3c2CCN(c2cccc4cccc(C)c24)C3)CC1CC#N, the IC50 (second compound 0.0316 µM) was greater than 100 nM, the IC50 (second compound 0.1 µM) was greater than 100 nM and the IC50 (second compound 0.316 µM) was greater than 100 nM. The IC50 (second compound 1 µM) was 9.38 nM, the IC50 (second compound 3.16 µM) was less than 0.316 nM and the viability, T/C (second compound 0.0316 µM, first compound 0.000316 µM) was 110%. It also gave a viability, T/C (second compound 0.0316 µM, first compound 0.001 µM) of 97.6%, a viability, T/C (second compound 0.0316 µM, first compound 0.00316 µM) of 89.9% and a viability, T/C (second compound 0.0316 µM, first compound 0.01 µM) of 85.3%. The viability, T/C (second compound 0.0316 µM, first compound 0.0316 µM) was 76.9%, the viability, T/C (second compound 0.0316 µM, first compound 0.1 µM) was 71.9% and the viability, T/C [31] was 99.2%. The viability, T/C [32] was 98.1%, the viability, T/C [33] was 85.3% and the viability, T/C [34] was 84.8%. For the same compound, the viability, T/C [1] was 71.4%, the viability, T/C [2] was 68.2% and the viability, T/C [35] was 77.3%. It also gave a viability, T/C [36] of 85.3%, a viability, T/C [37] of 64.7% and a viability, T/C [38] of 60.5%. For the same compound, the viability, T/C [7] was 61.6%, the viability, T/C [8] was 49.3% and the viability, T/C [39] was 56.8%. The viability, T/C [40] was 60%, the viability, T/C [41] was 50.3% and the viability, T/C [42] was 49.5%. For the same compound, the viability, T/C [13] was 45.5%, the viability, T/C [14] was 34.8% and the viability, T/C [43] was 0.73%. The viability, T/C [44] was 1.26%, the viability, T/C [45] was 0.25% and the viability, T/C [46] was 0.27%. For the same compound, the viability, T/C [19] was 0.43% and the viability, T/C [20] was 0.2%.

Compound `CN(C)C/C=C/C(=O)Nc1cc2c(Nc3ccc(F)c(Cl)c3)ncnc2cc1O[C@H]1CCOC1` + COc1cc2nc(C)nc(NC(C)c3cc(N)cc(C(F)(F)F)c3)c2cc1OC1CCOC1 has an IC50 (second compound 0.1 µM) greater than 100 nM, an IC50 (second compound 0.316 µM) greater than 100 nM and an IC50 (second compound 1 µM) greater than 100 nM. For the same compound, the IC50 (second compound 3.16 µM) was 30.4 nM, the IC50 (second compound 10 µM) was 1.18 nM and the viability, T/C [31] was 94%. The viability, T/C [32] was 91.5%, the viability, T/C [33] was 84.8% and the viability, T/C [34] was 88.7%. It also gave a viability, T/C [1] of 85.4%, a viability, T/C [2] of 74.5% and a viability, T/C [35] of 87.5%. It also gave a viability, T/C [36] of 74.7%, a viability, T/C [37] of 72.7% and a viability, T/C [38] of 73.5%. It also gave a viability, T/C [7] of 66.1%, a viability, T/C [8] of 58.1% and a viability, T/C [39] of 87%. For the same compound, the viability, T/C [40] was 82.2%, the viability, T/C [41] was 83.7% and the viability, T/C [42] was 86.8%. The viability, T/C [13] was 84.9%, the viability, T/C [14] was 75.2% and the viability, T/C [43] was 62.8%. The viability, T/C [44] was 46.8%, the viability, T/C [45] was 57% and the viability, T/C [46] was 54.9%. The viability, T/C [19] was 52.5%, the viability, T/C [20] was 44.5% and the viability, T/C [47] was 50%. For the same compound, the viability, T/C [48] was 52.2%, the viability, T/C [49] was 50.7% and the viability, T/C [50] was 45.5%. It also gave a viability, T/C [25] of 45.6% and a viability, T/C [26] of 47.8%.

`COc1cc(Nc2ncc3c(n2)-c2ccc(Cl)cc2C(c2c(F)cccc2OC)=NC3)ccc1C(=O)O` + CNCc1ccccc1-c1csc(C(C)Nc2nc(C)nc3cc(OC)c(OC)cc23)c1 showed an IC50 (second compound 0.1 µM) of less than 31.6 nM, an IC50 (second compound 0.316 µM) of less than 31.6 nM and an IC50 (second compound 1 µM) of less than 31.6 nM. The IC50 (second compound 3.16 µM) was less than 31.6 nM, the IC50 (second compound 10 µM) was less than 31.6 nM and the viability, T/C [1] was 27.9%. For the same compound, the viability, T/C [2] was 24.7%, the viability, T/C [3] was 28.1% and the viability, T/C [4] was 25.4%. For the same compound, the viability, T/C [5] was 22.3%, the viability, T/C [6] was 16.5% and the viability, T/C [7] was 25.8%. The viability, T/C [8] was 22%, the viability, T/C [9] was 25.9% and the viability, T/C [10] was 23.9%. For the same compound, the viability, T/C [11] was 21.1%, the viability, T/C [12] was 14.9% and the viability, T/C [13] was 20.6%. For the same compound, the viability, T/C [14] was 19.1%, the viability, T/C [15] was 23.1% and the viability, T/C [16] was 19.4%. For the same compound, the viability, T/C [17] was 17.6%, the viability, T/C [18] was 13.4% and the viability, T/C [19] was 0.07%. The viability, T/C [20] was 0.05%, the viability, T/C [21] was 0.04% and the viability, T/C [22] was 0.05%. It also gave a viability, T/C [23] of 0.08%, a viability, T/C [24] of 0.19% and a viability, T/C [25] of 0.11%. It also gave a viability, T/C [26] of 0.1%, a viability, T/C [27] of 0.13% and a viability, T/C [28] of 0.1%. The viability, T/C [29] was 0.09% and the viability, T/C [30] was 0.15%.

`CC(C)n1nc(-c2ccc3oc(N)nc3c2)c2c(N)ncnc21` + CC1OCC2(CCN(c3cnc(Sc4ccnc(N)c4Cl)c(N)n3)CC2)C1N showed an IC50 (second compound 0.1 µM) of 1.06 nM, an IC50 (second compound 0.316 µM) of less than 0.316 nM and an IC50 (second compound 1 µM) of less than 0.316 nM. For the same compound, the IC50 (second compound 3.16 µM) was less than 0.316 nM, the IC50 (second compound 10 µM) was less than 0.316 nM and the viability, T/C [31] was 66.5%. It also gave a viability, T/C [32] of 51.4%, a viability, T/C [33] of 35.4% and a viability, T/C [34] of 29.4%. For the same compound, the viability, T/C [1] was 20.8%, the viability, T/C [2] was 19.1% and the viability, T/C [35] was 48.7%. For the same compound, the viability, T/C [36] was 38.5%, the viability, T/C [37] was 30.5% and the viability, T/C [38] was 21.6%. For the same compound, the viability, T/C [7] was 18.4%, the viability, T/C [8] was 16.6% and the viability, T/C [39] was 44%. The viability, T/C [40] was 36.4%, the viability, T/C [41] was 26.1% and the viability, T/C [42] was 19.3%. The viability, T/C [13] was 17.4%, the viability, T/C [14] was 14.5% and the viability, T/C [43] was 32.3%. For the same compound, the viability, T/C [44] was 28.3%, the viability, T/C [45] was 23.7% and the viability, T/C [46] was 16.6%. For the same compound, the viability, T/C [19] was 14.9%, the viability, T/C [20] was 12.5% and the viability, T/C [47] was 27.2%. It also gave a viability, T/C [48] of 27.8%, a viability, T/C [49] of 20.1% and a viability, T/C [50] of 17%. It also gave a viability, T/C [25] of 12.8% and a viability, T/C [26] of 11.3%.
